ChEMBL document CHEMBL1131315, “Synthesis and anticonvulsant activity of 2(3H)-benzoxazolone and 2(3H)-benzothiazolone derivatives” (J Med Chem, 1998)
The source made the active and inactive calls.

Experiments:
Mus musculus [1] = experiment: The compound was tested for anticonvulsant activity in Maximal electroshock seizure test (MES) for 4 hr in mice(ip); no activity or toxicity at 300 mg/kg; type: functional, organism-based; set-up: dose 300 mg/kg
Mus musculus [2] = experiment: The anticonvulsant activity in subcutaneous pentylenetetrazole seizure test (sc Met) for 4 hr in mice; no activity or no toxicity at 300 mg/kg; type: functional, organism-based; set-up: dose 300 mg/kg
[3] = The compound was tested for neurologic toxicity (rotarod) test for 4 hours in mice; active at 30 mg/kg; type: organism-based; set-up: dose 30 mg/kg; conditions: mouse, in vivo
Mus musculus [4] = experiment: Anticonvulsant activity in subcutaneous pentylenetetrazole seizure test for 30 min in mice; No activity/toxicity at 300 mg/kg.; type: functional, organism-based; set-up: dose 300 mg/kg
[5] = The compound was tested for neurologic toxicity (rotarod) test for 30 min in mice; active at 30 mg/kg; type: organism-based; set-up: dose 30 mg/kg; conditions: mouse, in vivo, 0.5 h
Mus musculus [6] = experiment: Anticonvulsant activity in Maximal electroshock seizure test at 100 mg/kg i.p. in mice.; type: functional, organism-based; set-up: dose 100 mg/kg
Mus musculus [7] = experiment: The compound was tested for anticonvulsant activity in Maximal electroshock seizure test (MES) for 4 hr in mice(ip); active at 300 mg/kg; type: functional, organism-based; set-up: dose 300 mg/kg
Mus musculus [8] = experiment: The compound was tested for anticonvulsant activity in subcutaneous pentylenetetrazole seizure test (sc Met) for 30 min in mice; active at 100 mg/kg; type: functional, organism-based; set-up: dose 100 mg/kg
Mus musculus [9] = experiment: The compound was tested for anticonvulsant activity in subcutaneous pentylenetetrazole seizure test (sc Met) for 4 hr in mice; active at 300 mg/kg; type: functional, organism-based; set-up: dose 300 mg/kg
Mus musculus [10] = experiment: The compound was tested for neurologic toxicity (rotarod) test for 30 min in mice; active at 100 mg/kg; type: functional, organism-based; set-up: dose 100 mg/kg
Mus musculus [11] = experiment: The compound was tested for neurologic toxicity (rotarod) test for 4 hours in mice; active at 300 mg/kg; type: functional, organism-based; set-up: dose 300 mg/kg

CCC(=O)c1ccc2c(c1)oc(=O)n2CCCN1CCCCC1
active at 30 mg/kg: Rotarod toxicity [3] | Rotarod toxicity [5]
inactive: MES (Mus musculus [1]) No activity or toxicity at 300 mg/kg | scMet (Mus musculus [2]) No activity or no toxicity at 300 mg/kg | scMet (Mus musculus [4]) No activity or no toxicity at 300 mg/kg | MES (Mus musculus [6]) No activity or toxicity at 300 mg/kg

O=c1[nH]c2ccccc2s1
active: MES (Mus musculus [7]) active at 300 mg/kg | scMet (Mus musculus [8]) active at 100 mg/kg | scMet (Mus musculus [9]) active at 100 mg/kg | Rotarod toxicity (Mus musculus [10]) active at 100 mg/kg | Rotarod toxicity (Mus musculus [11]) active at 100 mg/kg | MES (Mus musculus [6]) active at 300 mg/kg
